# Source: publication PMC6938345, “Inhibition of complement activation, myeloperoxidase, NET formation and oxidant activity by PIC1 peptide variants” (PLoS ONE, 2019)
# Assays:
# [1] = tested on: antibody-initiated complement activation (type O sera + type AB red blood cells); test: ABO incompatibility hemolytic assay (CH50-type, ex vivo); type: cell-based, human; conditions: peptides 1.8 mM
# Experimental: For hemolytic complement assays, human red blood cells (RBCs) from type AB donors were purified, washed and standardized to 1 × 10^9 cells/ml, as previously described. Human sera from type O donors at a 20% final concentration was combined with 1 mM PIC1 or sarcosine variant peptides and the volume was brought up to 0.15 ml with GVBS^++ and 0.5 ml RBCs. For factor B-depleted sera hemolytic assays, a final of 0.005% factor B depleted sera was incubated with 1 mM PIC1 or sarcosine variant peptides with 0.1 ml antibody-sensitized sheep red blood cells (EA) in a final volume of 0.75 ml GVBS^++. The samples were incubated for 1 hour at 37 °C and then 1.0 ml of GVBS^-—was added to the factor B-depleted samples to stop the reaction. The samples were spun at 3,000 rpm for 5 minutes and the supernatant was collected and read at 412 nm. Values are represented as a percent of the positive control, which consists of human O sera and AB red blood cells in GVBS^++ buffer.
# In order to evaluate the extent to which the peptide variants inhibit antibody-initiated complement activation, we tested them in two hemolytic assays including an ABO incompatibility ex vivo assay (Fig 1A) and a classical pathway CH50-type assay in factor B-depleted sera (Fig 1B). In the ABO incompatibility hemolytic assay, purified erythrocytes from a ‘type AB+’ donor are incubated with sera from a ‘type O’ subject containing anti-A and anti-B antibodies; peptides were tested at 1.8 mM. […] We then performed a CH50-type hemolytic assay, with antibody-sensitized sheep erythrocytes, isolating the classical pathway by utilizing factor B-depleted sera; peptides were tested at 0.4 mM.
# Fig 1 Sarcosine variant inhibition of complement activation in hemolytic assays and C1q binding. A) Inhibition of ABO incompatibility hemolysis in a CH50-type assay. Peptides are at a final concentration of 1.8 mM. […] Data are the means of n = 4 independent experiments + SEM. B) Inhibition of classical complement pathway-mediated hemolysis in factor B-depleted sera in a CH50-type assay. Peptides are at a final concentration of 0.4 mM. Data are the means of n = 4 independent experiments + SEM. C) Binding of increasing concentrations of sarcosine variants to purified C1q in an ELISA-type assay. Data are the means of n = 3 independent experiments ± SEM. D) Half-maximal binding concentrations were calculated for each peptide’s binding curve.
# [2] = target: T1, MPO (Homo sapiens, UniProt P05164); test: MPO binding ELISA-type assay; conditions: solid phased MPO, plate-based
# T1 construct: purchased Lee BioSolutions (Maryland Heights, MO)
# T1 sequence (P05164 49-745): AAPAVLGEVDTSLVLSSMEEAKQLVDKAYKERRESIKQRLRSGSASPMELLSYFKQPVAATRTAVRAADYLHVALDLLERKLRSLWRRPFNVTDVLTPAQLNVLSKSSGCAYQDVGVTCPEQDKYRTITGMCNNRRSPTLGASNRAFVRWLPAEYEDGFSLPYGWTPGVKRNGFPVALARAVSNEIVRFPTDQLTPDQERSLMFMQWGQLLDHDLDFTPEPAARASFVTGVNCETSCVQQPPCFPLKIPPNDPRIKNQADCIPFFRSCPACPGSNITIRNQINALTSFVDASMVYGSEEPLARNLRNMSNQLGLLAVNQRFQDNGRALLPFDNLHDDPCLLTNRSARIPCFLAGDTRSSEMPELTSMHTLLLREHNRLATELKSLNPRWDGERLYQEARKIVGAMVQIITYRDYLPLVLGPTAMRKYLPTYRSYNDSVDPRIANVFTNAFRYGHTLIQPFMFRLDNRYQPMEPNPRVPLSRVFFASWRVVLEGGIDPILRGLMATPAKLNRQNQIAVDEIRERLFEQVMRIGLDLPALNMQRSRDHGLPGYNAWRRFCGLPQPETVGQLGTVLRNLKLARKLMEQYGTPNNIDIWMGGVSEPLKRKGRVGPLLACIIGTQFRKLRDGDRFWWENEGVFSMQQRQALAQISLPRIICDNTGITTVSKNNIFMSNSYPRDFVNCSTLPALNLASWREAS
# Experimental: An Immunlon-2 HB ELISA plate was coated with 1 μg/ml C1q or MPO in bicarbonate buffer overnight at 4 °C. The plates were washed with PBST (phosphate buffered saline + 0.1% Tween) and then blocked with 1% gelatin/PBS for 2 hours at room temperature. After washing, the plates were incubated with PA or sarcosine variant peptides starting at 2.5 mg/ml and then serially diluted in 1% gelatin/PBS for 1 hour at room temperature. After washing, the plates were probed with rabbit anti-PA (developed with Cocalico Biologicals, Reamstown, PA) at 1:1000 in 1% gelatin/PBS for 1 hour, room temperature, followed by a goat anti-rabbit HRP (Sigma Aldrich, St Louis, MO) at 1:1,000 in 1% gelatin/PBS for 1 hour at room temperature with a washing step in between. Wells were developed using TMB substrate solution, stopped using 1 N H2SO4, and read at 450 nm in a plate reader.
# We then tested the binding of the peptide variants to solid phased MPO in a plate-based assay. The binding curves are shown in Fig 2C with MPO binding identified for all variants except C9,10. Due to the near complete overlay of the I8 and PA curves, the PA curve is not shown in the graph. Half-maximal (Fig 2D) binding concentrations were calculated from these curves.
# [3] = target: T2, MPO heme ring (Homo sapiens, UniProt P05164); test: MPO heme ring oxidative degradation; type: biochemical; conditions: peptides 3.0 mM, H2O2, absorbance 300-550 nm
# T2 construct: purchased Lee BioSolutions (Maryland Heights, MO)
# T2 sequence (P05164 49-745): T1 sequence (P05164 49-745)
# Experimental: In a 96 well plate, 0.025 ml of 1.7 mg/ml MPO was combined with 0.00125 ml of 0.5% H2O2 and 3 mM PIC1 or sarcosine variant peptides in a total volume of 0.125 ml PBS and left to incubate at room temperature for 2 minutes. Using a 96 well plate reader, the wells were scanned for absorbance from 300–550 nm to generate curves reflecting the iron state in the MPO heme ring, as previously reported.
# We then evaluated the ability of the variants to prevent degradation of the heme ring in the MPO molecule. […] This can be evaluated via spectrometric measurements of absorption of wavelengths from 300–550 nm. Absorption measurements were made over this spectrum for all variants (Fig 3A–3H). […] The heme ring preservation for these two variants was greater than that for the parent compound, PA-dPEG24.
# Fig 3 Sarcosine variant protection of MPO heme ring from oxidative degradation. Absorbance spectra for the heme ring is shown in the absence of hydrogen peroxide (MPO) in red, in the presence of hydrogen peroxide (MPO+H2O2) in black, in the presence of peptide in blue, and in the presence of hydrogen peroxide and peptide together in green. […] B-H) Peptides A2 – C9,10 are denoted in the legends. Peptides were tested at a concentration of 3.0 mM.
structure (smiles),measurement,setting,value
CC[C@H](C)[C@H](N)C(=O)N[C@@H](C)C(=O)N[C@@H](CC(C)C)C(=O)N[C@H](C(=O)N[C@@H](CC(C)C)C(=O)N[C@@H](CCC(=O)O)C(=O)N1CCC[C@H]1C(=O)N(C)CC(=O)N[C@@H](CS)C(=O)N[C@@H](CS)C(=O)N[C@@H](CCC(N)=O)C(=O)N[C@@H](CCC(=O)O)C(=O)N[C@@H](CCCNC(=N)N)C(=O)N[C@@H](C)C(=O)N[C@@H](C)C(=O)O)[C@@H](C)CC [I8],ABO hemolysis,"[1]; Avg of n = 4, concentration basis of PIC1 not stated",13.50 % of Control
same,inhibition of ABO incompatible hemolysis (in words),[1],to a greater extent than did the PA-dPEG24
same,decrease of ABO hemolysis more than PA-dPEG24,"[1]; equimolar basis, P < 0.002",53%
same,binding to MPO (in words),[2],superior binding to MPO
same,protection of MPO heme ring from degradation (in words),[3],near perfect preservation
